From patent US6924302B2, “Substituted triazole diamine derivatives as kinase inhibitors” (Ortho McNeil Pharmaceutical, Inc., priority 2000, dated 2005)
Like-named read-outs stand apart in the source and are kept apart here.

Columns and labels:
Format in all cases: biochemical
[1] = target: T1, Casein Kinase 2 (alpha and beta subunits) (Homo sapiens, UniProt P68400); experiment: Kinase Selectivity Assay Casein Kinase 2; conditions: Kinase Selectivity, Tables 2a-2k; read-out: Caseine Kinase 2 IC50
T1 construct: purchased New England Biolabs 6010; host or cells: E. coli
In short: (§1)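 Inhibition was measured as reduced ^33P-γ-ATP labelling of a biotinylated peptide substrate immobilized on streptavidin plates after one hour at 30° C.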

Insulin Receptor Kinase = Insulin Receptor Kinase (Homo sapiens, UniProt P06213); experiment: Kinase Selectivity Assay Insulin Receptor Kinase; conditions: Kinase Selectivity, Tables 2a-2k; read-out: Insulin R Kinase IC50
In short: as §1

CDK1:Cyclin-B = target: T2, CDK1:Cyclin-B (Homo sapiens, UniProt P06493); experiment: CDK1 Screening Assay; conditions: read-out: CDK1 IC50
T2 construct: purchased New England Biolabs 6020; host or cells: insect cells
In short: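 Human CDK1:cyclin-B (30 ng/well) with biotinylated histone-H1 peptide and ^33P-γ-ATP, 1 h at 30° C, 1% DMSO, on streptavidin FlashPlate; incorporation read by scintillation.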

[2] = target: T3, MAP Kinase (ERK-2 isoform) (Rattus norvegicus, UniProt P63086); experiment: Kinase Selectivity Assay MAP Kinase (ERK-2); conditions: Kinase Selectivity, Tables 2a-2k; read-out: ERK 2 IC50
T3 construct: polyhistidine (N); host or cells: E. coli
In short: as §1

[3] = Kinase Selectivity, Tables 2a-2k

T1 sequence (P68400 whole entry): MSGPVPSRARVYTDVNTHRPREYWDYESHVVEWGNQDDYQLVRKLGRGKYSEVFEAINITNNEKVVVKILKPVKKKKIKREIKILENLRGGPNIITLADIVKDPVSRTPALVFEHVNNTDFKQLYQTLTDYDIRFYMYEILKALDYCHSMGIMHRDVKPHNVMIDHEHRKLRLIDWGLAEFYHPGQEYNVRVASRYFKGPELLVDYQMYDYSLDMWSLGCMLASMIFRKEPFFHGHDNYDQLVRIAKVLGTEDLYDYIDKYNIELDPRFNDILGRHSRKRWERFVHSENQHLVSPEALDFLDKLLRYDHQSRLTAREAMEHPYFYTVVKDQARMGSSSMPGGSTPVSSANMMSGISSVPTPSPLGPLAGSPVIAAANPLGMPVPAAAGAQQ
T1 sequence (P67870 whole entry partner): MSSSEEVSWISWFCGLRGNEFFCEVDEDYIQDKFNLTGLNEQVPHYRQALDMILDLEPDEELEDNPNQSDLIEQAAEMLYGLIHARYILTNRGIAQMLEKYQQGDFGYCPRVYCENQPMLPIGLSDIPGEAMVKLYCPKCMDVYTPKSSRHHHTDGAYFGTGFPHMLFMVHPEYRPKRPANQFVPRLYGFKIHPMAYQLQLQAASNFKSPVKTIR
Sequence of Insulin Receptor Kinase (P06213 980-1352): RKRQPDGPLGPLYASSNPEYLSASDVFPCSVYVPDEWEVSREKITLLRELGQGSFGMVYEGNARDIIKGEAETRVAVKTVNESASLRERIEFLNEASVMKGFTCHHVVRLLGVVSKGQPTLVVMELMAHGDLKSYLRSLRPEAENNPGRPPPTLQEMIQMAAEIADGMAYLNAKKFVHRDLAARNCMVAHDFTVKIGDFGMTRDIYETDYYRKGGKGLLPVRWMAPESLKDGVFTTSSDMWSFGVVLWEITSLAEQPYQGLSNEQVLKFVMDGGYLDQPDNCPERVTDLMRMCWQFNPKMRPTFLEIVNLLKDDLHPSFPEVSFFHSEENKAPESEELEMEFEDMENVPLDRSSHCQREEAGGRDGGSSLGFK
T3 sequence (P63086 whole entry, canonical isoform): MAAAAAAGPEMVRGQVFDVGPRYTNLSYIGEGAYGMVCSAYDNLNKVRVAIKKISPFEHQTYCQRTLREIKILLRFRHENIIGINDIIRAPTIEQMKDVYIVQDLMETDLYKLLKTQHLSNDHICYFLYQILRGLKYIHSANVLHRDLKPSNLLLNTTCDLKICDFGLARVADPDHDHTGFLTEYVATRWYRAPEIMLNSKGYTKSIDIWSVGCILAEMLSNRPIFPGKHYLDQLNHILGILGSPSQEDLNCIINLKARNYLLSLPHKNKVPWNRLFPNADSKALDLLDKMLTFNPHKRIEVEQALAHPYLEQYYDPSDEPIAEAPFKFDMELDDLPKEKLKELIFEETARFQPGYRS
T2 sequence (P06493 whole entry): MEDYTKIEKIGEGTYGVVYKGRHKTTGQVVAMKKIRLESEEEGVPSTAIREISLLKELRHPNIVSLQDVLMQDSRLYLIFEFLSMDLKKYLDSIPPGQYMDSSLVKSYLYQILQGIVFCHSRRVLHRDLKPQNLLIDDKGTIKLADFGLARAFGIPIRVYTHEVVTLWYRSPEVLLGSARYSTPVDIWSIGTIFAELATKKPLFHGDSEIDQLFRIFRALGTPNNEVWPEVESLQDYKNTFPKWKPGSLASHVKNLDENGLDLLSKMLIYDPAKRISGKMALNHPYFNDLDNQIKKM
T2 sequence (P14635 whole entry partner): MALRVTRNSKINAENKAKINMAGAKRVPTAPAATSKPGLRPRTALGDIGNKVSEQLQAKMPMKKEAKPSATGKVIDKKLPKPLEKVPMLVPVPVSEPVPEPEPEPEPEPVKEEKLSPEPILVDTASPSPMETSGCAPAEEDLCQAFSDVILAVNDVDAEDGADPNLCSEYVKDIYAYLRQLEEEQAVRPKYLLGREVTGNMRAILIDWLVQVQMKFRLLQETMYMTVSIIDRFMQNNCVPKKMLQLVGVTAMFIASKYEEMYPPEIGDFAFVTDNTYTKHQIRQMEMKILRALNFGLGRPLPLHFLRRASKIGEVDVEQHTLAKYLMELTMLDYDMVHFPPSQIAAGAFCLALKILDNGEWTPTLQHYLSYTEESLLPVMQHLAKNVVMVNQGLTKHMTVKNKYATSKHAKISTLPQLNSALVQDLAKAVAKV

| SMILES | IC50 [1] | IC50 (Insulin Receptor Kinase) | IC50 (CDK1:Cyclin-B; [3]) | IC50 (CDK1:Cyclin-B; Table 1) | IC50 [2] |
| --- | --- | --- | --- | --- | --- |
| Nc1nc(Nc2ccc(S(N)(=O)=O)cc2)nn1C(=O)c1c(F)cccc1F [Cpd 1, 4-[[5-amino-1-(2,6-difluorobenzoyl)-1H-1,2,4-triazol-3-yl]amino]-benzenesulfonamide] | > 100000 nM | > 100000 nM | 6 nM | 6.4 nM | – |
| Nc1nc(Nc2ccc(S(N)(=O)=O)cc2)nn1C(=O)c1cccs1 [Cpd 14, 4-[[5-amino-1-(2-thienylcarbonyl)-1H-1,2,4-triazol-3-yl]amino]-benzenesulfonamide] | 8050 nM | 1200 nM | 4.5 nM | 4.5 nM | 2140 nM |
| Nc1nc(Nc2ccc(S(N)(=O)=O)cc2)nn1C(=O)c1sccc1F [Cpd 16, 4-[[5-amino-1-[(3-fluoro-2-thienyl)carbonyl]-1H-1,2,4-triazol-3-yl]amino]-benzenesulfonamide] | > 100000 nM | > 100000 nM | 21 nM | 2.1 nM | 390 nM |
| Nc1nc(Nc2ccc(S(N)(=O)=O)cc2)nn1C(=O)c1sccc1Cl [Cpd 17, 4-[[5-amino-1-[(3-chloro-2-thienyl)carbonyl]-1H-1,2,4-triazol-3-yl]amino]-benzenesulfonamide] | 2650 nM | 2020 nM | 2.5 nM | 2.5 nM | 1870 nM |
| Nc1nc(Nc2ccc(S(=O)(=O)N3CCCCC3)cc2)nn1C(=O)c1cccs1 [Cpd 23, N^3-[4-(1-piperidinylsulfonyl)phenyl]-1-(2-thienylcarbonyl)-1H-1,2,4-triazole-3,5-diamine] | > 100000 nM | > 100000 nM | 89 nM | 88.9 nM | 1620 nM |
| Nc1nc(Nc2ccc(S(N)(=O)=O)cc2)nn1C(=O)c1ccsc1 [Cpd 30, 4-[[5-amino-1-(3-thienylcarbonyl)-1H-1,2,4-triazol-3-yl]amino]-benzenesulfonamide] | 7600 nM | 4960 nM | 17 nM | 17 nM | 5930 nM |
| CCc1ccc(C(=O)n2nc(Nc3ccc(S(N)(=O)=O)cc3)nc2N)s1 [Cpd 32, 4-[[5-amino-1-[(5-ethyl-2-thienyl)carbonyl]-1H-1,2,4-triazol-3-yl]amino]-benzenesulfonamide] | 527 nM | 123 nM | 3 nM | 3.1 nM | 563 nM |
| Cc1nc(C)c(C(=O)n2nc(Nc3ccc(S(N)(=O)=O)cc3)nc2N)s1 [Cpd 34, 4-[[5-amino-1-[(2,4-dimethyl-5-thiazolyl)carbonyl]-1H-1,2,4-triazol-3-yl]amino]-benzenesulfonamide] | > 100000 nM | > 10000 nM | 2 nM | 1.6 nM | > 10000 nM |
| Nc1nc(Nc2ccc(S(N)(=O)=O)cc2)nn1C(=O)c1sccc1Br [Cpd 35, 4-[[5-amino-1-[(3-bromo-2-thienyl)carbonyl]-1H-1,2,4-triazol-3-yl]amino]-benzenesulfonamide] | – | – | – | 1.1 nM | – |
| Nc1nc(Nc2ccc(S(N)(=O)=O)cc2)nn1C(=O)C1CCCC1 [Cpd 38, 4-[[5-amino-1-(cyclopentylcarbonyl)-1H-1,2,4-triazol-3-yl]amino]-benzenesulfonamide] | > 100000 nM | > 100000 nM | – | – | 24200 nM |
| Nc1nc(Nc2ccc(S(N)(=O)=O)cc2)nn1C(=O)C1CCCCC1 [Cpd 39, 4-[[5-amino-1-(cyclohexylcarbonyl)-1H-1,2,4-triazol-3-yl]amino]-benzenesulfonamide] | > 100000 nM | 19400 nM | – | – | 13200 nM |
| CC(C)(C)c1ccc(C(=O)n2nc(Nc3ccc(S(N)(=O)=O)cc3)nc2N)s1 [Cpd 51, 4-[[5-amino-1-[[5-(1,1-dimethylethyl)-2-thienyl]carbonyl]-1H-1,2,4-triazol-3-yl]amino]-benzenesulfonamide] | 1780 nM | 77 nM | 7 nM | 7 nM | 928 nM |
| Cc1ccccc1C(=O)n1nc(Nc2ccc(S(N)(=O)=O)cc2)nc1N [Cpd 57, 4-[[5-amino-1-(2-methylbenzoyl)-1H-1,2,4-triazol-3-yl]amino]-benzenesulfonamide] | > 100000 nM | > 100000 nM | 67 nM | 67 nM | > 100000 nM |
| CC(O)c1ccc(F)c(C(=O)n2nc(Nc3ccc(S(N)(=O)=O)cc3)nc2N)c1F (stereo not drawn) [Cpd 58, 4-[[5-amino-1-[2,6-difluoro-3-(1-hydroxyethyl)benzoyl]-1H-1,2,4-triazol-3-yl]amino]-benzenesulfonamide] | > 100000 nM | > 100000 nM | 14 nM | 14 nM | 10700 nM |
| Cc1ccc(F)c(C(=O)n2nc(Nc3ccc(S(N)(=O)=O)cc3)nc2N)c1Cl [Cpd 69, 4-[[5-amino-1-(2-chloro-6-fluoro-3-methylbenzoyl)-1H-1,2,4-triazol-3-yl]amino]-benzenesulfonamide] | > 100000 nM | 45100 nM | 23 nM | 23 nM | 12500 nM |
| Nc1nc(Nc2ccc(S(N)(=O)=O)cc2)nn1C(=O)c1c(F)cccc1Cl [Cpd 70, 4-[[5-amino-1-(2-chloro-6-fluorobenzoyl)-1H-1,2,4-triazol-3-yl]amino]-benzenesulfonamide] | > 100000 nM | > 100000 nM | 35 nM | 35 nM | 19400 nM |
| CN1CCN(c2ccc(Nc3nc(N)n(C(=O)c4c(F)cccc4F)n3)cc2)CC1 [Cpd 71, 1-(2,6-difluorobenzoyl)-N^3-[4-(4-methyl-1-piperazinyl)phenyl]-1H-1,2,4-triazole-3,5-diamine] | > 100000 nM | 35300 nM | 3710 nM | 3710 nM | > 100000 nM |
| CNS(=O)(=O)c1ccc(Nc2nc(N)n(C(=O)c3c(F)cccc3F)n2)cc1 [Cpd 80, 4-[[5-amino-1-(2,6-difluorobenzoyl)-1H-1,2,4-triazol-3-yl]amino]-N-methyl-benzenesulfonamide] | – | – | – | 45.2 nM | – |
| CNS(=O)(=O)c1ccc(Nc2nc(N)n(C(=O)c3c(F)ccc(C)c3F)n2)cc1 [Cpd 81, 4-[[5-amino-1-(2,6-difluoro-3-methylbenzoyl)-1H-1,2,4-triazol-3-yl]amino]-N-methyl-benzenesulfonamide] | > 100000 nM | 29600 nM | – | – | 11700 nM |
| CNS(=O)(=O)c1ccc(Nc2nc(N)n(C(=O)c3sccc3C)n2)cc1 [Cpd 82, 4-[[5-amino-1-[(3-methyl-2-thienyl)carbonyl]-1H-1,2,4-triazol-3-yl]amino]-N-methyl-benzenesulfonamide] | > 100000 nM | 1100 nM | 9 nM | 9 nM | 1950 nM |
| CCc1ccc(C(=O)n2nc(Nc3ccc(S(=O)(=O)NC)cc3)nc2N)s1 [Cpd 84, 4-[[5-amino-1-[(5-ethyl-2-thienyl)carbonyl]-1H-1,2,4-triazol-3-yl]amino]-N-methyl-benzenesulfonamide] | 1670 nM | 172 nM | 4 nM | 3.8 nM | 1220 nM |
| CCc1ccc(C(=O)n2nc(Nc3ccc(S(=O)(=O)NCCN(C)C)cc3)nc2N)s1 [Cpd 103, 4-[[5-amino-1-[(5-ethyl-2-thienyl)carbonyl]-1H-1,2,4-triazol-3-yl]amino]-N-[2-(dimethylamino)ethyl]-benzenesulfonamide] | 5300 nM | 123 nM | 7 nM | 7.4 nM | 845 nM |
| Cc1ccsc1C(=O)n1nc(Nc2ccc(S(=O)(=O)NCCN(C)C)cc2)nc1N [Cpd 104, 4-[[5-amino-1-[(3-methyl-2-thienyl)carbonyl]-1H-1,2,4-triazol-3-yl]amino]-N-[2-(dimethylamino)ethyl]-benzenesulfonamide] | > 100000 nM | 2090 nM | 1.6 nM | 15.6 nM | > 100000 nM |
| Cc1cc(C)c(C(=O)n2nc(Nc3ccc(NS(C)(=O)=O)cc3)nc2N)s1 [Cpd 108, N-[4-[[5-amino-1-[(3,5-dimethyl-2-thienyl)carbonyl]-1H-1,2,4-triazol-3-5 yl]amino]phenyl]-methanesulfonamide] | > 10000 nM | – | 66 nM | 65.7 nM | 2390 nM |
| Cc1ccsc1C(=O)n1nc(Nc2ccc(N3CCNC3=O)cc2)nc1N [Cpd 113, 1-[4-[[5-amino-1-[(3-methyl-2-thienyl)carbonyl]-1H-1,2,4-triazol-3-yl]amino]phenyl]-2-imidazolidinone] | > 100000 nM | > 10000 nM | 254 nM | 254 nM | > 100000 nM |
| Cc1ccsc1C(=O)n1nc(Nc2ccc(N3CCCS3(=O)=O)cc2)nc1N [Cpd 116, N^3-[4-(1,1-dioxido-2-isothiazolidinyl)phenyl]-1-[(3-methyl-2-thienyl)carbonyl]-1H-1,2,4-triazole-3,5-diamine] | > 100000 nM | > 100000 nM | 21 nM | 20.8 nM | > 100000 nM |
| Nc1nc(Nc2ccc(N3CCCS3(=O)=O)cc2)nn1C(=O)c1c(F)cccc1F [Cpd 117] | > 100000 nM | > 100000 nM | – | – | > 100000 nM |
